Source: US20180021270A1, “METHODS FOR THE TREATMENT OF CANCER USING COENZYME Q10 IN COMBINATION WITH IMMUNE CHECKPOINT MODULATORS” (Berg LLC, priority 2016, published 2018)

Experiment: Body weight of C57BL/6 mice with Pan02 tumors
Format: in vivo, mouse
Settings: 25, 50 or 100 mg/kg i.p. twice per day for 21 days
Method: The body weight of C57BL/6 mice implanted with murine Pan02 pancreatic cancer cells and treated with Coenzyme Q10 was also evaluated. Tumors with mean volume of 100 mm^3 were treated twice per day with vehicle control or Coenzyme Q10 at 25, 50 or 100 mg/kg administered intraperitoneally for 21 days. Body weight was measured every two days for the first 5 days, and then twice per week.

## COC1=C(OC)C(=O)C(C/C=C(\C)CC/C=C(\C)CC/C=C(\C)CC/C=C(\C)CC/C=C(\C)CC/C=C(\C)CC/C=C(\C)CC/C=C(\C)CC/C=C(\C)CCC=C(C)C)=C(C)C1=O [Coenzyme Q10]
  Effect on body weight: no significant effect
